Species: Rattus norvegicus
Test: Open TG-GATES - Regimen: Daily Repeat
Format: toxicity, organism-based, Sprague-Dawley
Design: regimen Daily Repeat, gender Male, age 6 weeks
Details: in vivo, po, route gavage; for ALP / ALT / AST / BUN / CRE / Ca / Cl / DBIL / GLC / IP / K / LDH / Na / PL / RALB / TBIL / TC / TG / TP / gamma-GTP / A/G: tissue Plasma; for APTT / Bas / Eos / Fbg / Hb / Ht / Lym / MCH / MCHC / MCV / Mono / Neu / PT / Plat / RBC / Ret / WBC: tissue Blood; for KIDNEY_L / KIDNEY_R / KIDNEY_TOTAL: tissue Kidney; for LIVER: tissue Liver
[1] = 1 mg/kg, […], dose level Middle, time 28 day
[2] = 3 mg/kg, 72 h, dose level High, time 3 day
[3] = 3 mg/kg, […], dose level High, time 7 day
[4] = 3 mg/kg, […], dose level High, time 14 day

`CN1C(C(=O)Nc2ccccn2)=C(O)c2sc(Cl)cc2S1(=O)=O` [LORNOXICAM] was tested, and the ALP [1] was 589.2 IU/L, the ALT [1] was 31.8 IU/L and the AST [1] was 76.2 IU/L. It also gave a BUN [1] of 19 mg/dL, a CRE [1] of 0.5 mg/dL and a Ca [1] of 10.2 mg/dL. The Cl [1] was 104 meq/L, the DBIL [1] was 0.0925 mg/dL and the GLC [1] was 206.5 mg/dL. It also gave an IP [1] of 6.3 mg/dL, a K [1] of 3.8 meq/L and an LDH [1] of 194.2 IU/L. For the same compound, the Na [1] was 141.8 meq/L, the PL [1] was 142.8 mg/dL and the RALB [1] was 3.3 g/dL. It also gave a TBIL [1] of 0.2 mg/dL, a TC [1] of 69.8 mg/dL and a TG [1] of 150.2 mg/dL. It also gave a TP [1] of 5.8 g/dL, a gamma-GTP [1] of 1.5 IU/L and a TERMINAL_BW [2] of 235 g. It also gave an APTT [2] of 18.3 s, a Bas [2] of 0.8% and an Eos [2] of 0.6%. The Fbg [2] was 354.8 mg/dL, the Hb [2] was 11.6 g/dL and the Ht [2] was 35.4%. For the same compound, the Lym [2] was 56.8%, the MCH [2] was 20.5 pg and the MCHC [2] was 32.9%. It also gave an MCV [2] of 62.4 fL, a Mono [2] of 6% and a Neu [2] of 29.2%. It also gave a PT [2] of 11.4 s, a Plat [2] of 121.4 x10_4/uL and an RBC [2] of 568.2 x10_4/ul. The Ret [2] was 6.5%, the WBC [2] was 164.3 x10_2/uL and the KIDNEY_L [2] was 1.2 g. It also gave a KIDNEY_R [2] of 1.1 g, a KIDNEY_TOTAL [2] of 2.3 g and an LIVER [2] of 12 g. It also gave an A/G [2] of 0.9, an ALP [2] of 648.6 IU/L and an ALT [2] of 30 IU/L. It also gave an AST [2] of 57.4 IU/L, a BUN [2] of 12.4 mg/dL and a CRE [2] of 0.4 mg/dL. The Ca [2] was 10.5 mg/dL, the Cl [2] was 103.8 meq/L and the DBIL [2] was 0.07 mg/dL. For the same compound, the GLC [2] was 194 mg/dL, the IP [2] was 8 mg/dL and the K [2] was 4.4 meq/L. The LDH [2] was 163 IU/L, the Na [2] was 140.8 meq/L and the PL [2] was 142.8 mg/dL. It also gave an RALB [2] of 2.4 g/dL, a TBIL [2] of 0.1 mg/dL and a TC [2] of 70.8 mg/dL. The TG [2] was 131.6 mg/dL, the TP [2] was 4.9 g/dL and the gamma-GTP [2] was 1.4 IU/L. The TERMINAL_BW [3] was 246.6 g, the APTT [3] was 18 s and the Bas [3] was 1%. For the same compound, the Eos [3] was 1%, the Fbg [3] was 362 mg/dL and the Hb [3] was 10.9 g/dL. It also gave a Ht [3] of 32.8%, a Lym [3] of 56% and an MCH [3] of 20.2 pg. The MCHC [3] was 33.2%, the MCV [3] was 61 fL and the Mono [3] was 4.7%. It also gave a Neu [3] of 36.3%, a PT [3] of 11.1 s and a Plat [3] of 232.1 x10_4/uL. It also gave an RBC [3] of 537.7 x10_4/ul, a Ret [3] of 6% and a WBC [3] of 243.6 x10_2/uL. For the same compound, the KIDNEY_L [3] was 1.2 g, the KIDNEY_R [3] was 1.2 g and the KIDNEY_TOTAL [3] was 2.3 g. It also gave an LIVER [3] of 11.3 g, an A/G [3] of 0.8 and an ALP [3] of 606 IU/L. For the same compound, the ALT [3] was 23.7 IU/L, the AST [3] was 58.3 IU/L and the BUN [3] was 9 mg/dL. The CRE [3] was 0.4 mg/dL, the Ca [3] was 10.3 mg/dL and the Cl [3] was 105.3 meq/L. It also gave a DBIL [3] of 0.0567 mg/dL, a GLC [3] of 176 mg/dL and an IP [3] of 7.7 mg/dL. The K [3] was 4.3 meq/L, the LDH [3] was 206.7 IU/L and the Na [3] was 141.3 meq/L. For the same compound, the PL [3] was 147 mg/dL, the RALB [3] was 2.4 g/dL and the TBIL [3] was 0.1 mg/dL. For the same compound, the TC [3] was 73.3 mg/dL, the TG [3] was 114.7 mg/dL and the TP [3] was 5.3 g/dL. The gamma-GTP [3] was 2 IU/L, the GLC [4] was 178 mg/dL and the gamma-GTP [4] was 1 IU/L.
